The values below come from US20260224528A1, “PSILOCIN FORMULATIONS” (Eleusis Therapeutics US, Inc., priority 2023, published 2026).

A short description of the data set: Stability of DS in aqueous solution. The class given is physicochemical. The settings on record: pH range of 4 to 9; rapid degradation and discoloration. Here is the method: The goal of this study was to develop an isotonic stable formulation with the psilocin benzoate Drug Substance (DS) concentration ranging from 0.5 to 3.0 mg/mL (mg free base psilocin) as a bulk sterile solution, having a pH in the range of 4 to 9 in a single use glass vial suitable for IV injection. […] This led to the development of a formulation of psilocin benzoate containing antioxidants, buffers, pH adjustment.

For the compound `CN(C)CCc1c[nH]c2cccc(O)c12.O=C(O)c1ccccc1` [DS, psilocin benzoate], the “Stability in aqueous solution” value is “short stability in aqueous solution”.
